In patent US5753617A, “Peptide inhibitors of cellular adhesion” (Centocor, Inc., priority 1995, dated 1998):
Read-outs that look alike come from different tables or passages of the source. Where a SMILES comes first, the peptide text is derived from it. Bridges are numbered along the chain shown (N, C = ends). [ ]: non-standard residue; d: D form.

What was measured:
[1] = disulfide bond, water
P-selectin = target: T1, P-selectin (Homo sapiens, UniProt P16109); assay: Inhibition of human neutrophil adhesion to purified P-selectin immobilized on plastic wells; type: cell-based; conditions: inhibiting the binding of human neutrophils to P-selectin
T1 construct: P-selectin is isolated from human platelet lysates; from tissue; host or cells: human platelets (outdated platelet packs from a blood bank)
T1 sequence (P16109 42-830): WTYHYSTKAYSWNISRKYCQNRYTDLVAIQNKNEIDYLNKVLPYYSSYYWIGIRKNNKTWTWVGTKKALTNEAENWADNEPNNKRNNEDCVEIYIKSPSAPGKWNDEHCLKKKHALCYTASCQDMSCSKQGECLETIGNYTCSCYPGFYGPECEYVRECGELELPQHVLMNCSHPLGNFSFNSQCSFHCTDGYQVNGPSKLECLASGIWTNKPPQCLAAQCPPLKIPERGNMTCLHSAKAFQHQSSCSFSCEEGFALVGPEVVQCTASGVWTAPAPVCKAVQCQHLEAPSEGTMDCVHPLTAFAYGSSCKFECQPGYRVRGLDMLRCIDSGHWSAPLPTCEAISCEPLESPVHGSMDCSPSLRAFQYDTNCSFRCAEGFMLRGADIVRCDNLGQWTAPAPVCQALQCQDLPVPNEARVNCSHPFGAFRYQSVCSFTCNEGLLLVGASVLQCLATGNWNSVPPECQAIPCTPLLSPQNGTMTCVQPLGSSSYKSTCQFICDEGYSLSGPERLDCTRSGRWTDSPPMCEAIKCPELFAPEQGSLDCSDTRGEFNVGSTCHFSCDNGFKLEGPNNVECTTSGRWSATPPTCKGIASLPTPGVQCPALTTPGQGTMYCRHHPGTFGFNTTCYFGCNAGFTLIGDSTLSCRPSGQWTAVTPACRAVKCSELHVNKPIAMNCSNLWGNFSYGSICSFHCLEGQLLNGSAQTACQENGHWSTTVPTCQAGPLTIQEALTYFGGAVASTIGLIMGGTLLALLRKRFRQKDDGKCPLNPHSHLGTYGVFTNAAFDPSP
Summary of the method: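 Isolated human neutrophils (2×10^5 per well) in HBSS with Ca2+/Mg2+ and HSA added to wells coated overnight at 4° C with platelet-derived P-selectin (5 micrograms/mL), HSA-blocked; 20 min at 22° C. Nonadherent cells removed by inverted centrifugation at 150 g; adherent cells quantified by myeloperoxidase activity.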

| SMILES | IC50 (P-selectin) [µM] | also measured |
| --- | --- | --- |
| CC(C)[C@@H](NC(=O)[C@@H](Cc1c[nH]c2ccccc12)NC(=O)[C@H](NC(=O)[C@@H](Cc1c[nH]c2ccccc12)NC(=O)[C@H]1CSSC[C@@H](NC(=O)[C@@H](CCCCN)NC(=O)[C@H](N)CCCNC(=N)N)C(=O)NCC(=O)N[C@@H](C)C(=O)N1)[C@H](C)O)C(N)=O [(38)] (H-[dR][dK][dC]GA[dC][dW][dT][dW][dV]-NH2; disulfide 3-6) | 75 | ring closure, yield of all isomers ([1]; from CC(C)[C@@H](NC(=O)[C@@H](Cc1c[nH]c2ccccc12)NC(=O)[C@H](NC(=O)[C@@H](Cc1c[nH]c2ccccc12)NC(=O)[C@@H](CS)NC(=O)[C@H](C)NC(=O)CNC(=O)[C@@H](CS)NC(=O)[C@@H](CCCCN)NC(=O)[C@H](N)CCCNC(=N)N)[C@H](C)O)C(N)=O, air/Cu wire, NH4OH, 3.31 mM, 20.0 h): 15.1% |
| CC(C)[C@H](NC(=O)[C@H](Cc1c[nH]c2ccccc12)NC(=O)[C@@H](NC(=O)[C@H](Cc1c[nH]c2ccccc12)NC(=O)[C@@H]1CSSC[C@H](N)C(=O)NCC(=O)NCC(=O)N1)[C@@H](C)O)C(N)=O [(29)] (H-CGGCWTWV-NH2; disulfide 1-4) | 325 | ring closure, yield of all isomers ([1]; from CC(C)[C@H](NC(=O)[C@H](Cc1c[nH]c2ccccc12)NC(=O)[C@@H](NC(=O)[C@H](Cc1c[nH]c2ccccc12)NC(=O)[C@H](CS)NC(=O)CNC(=O)CNC(=O)[C@@H](N)CS)[C@@H](C)O)C(N)=O, DMSO, 0.285 mM, 16.0 h): 8.5% |
| CC(C)[C@@H]1NC(=O)CNC(=O)[C@H](NC(=O)[C@@H](CCCCN)NC(=O)[C@H](N)CCCNC(=N)N)CSSC[C@H](C(=O)N[C@H](Cc2c[nH]c3ccccc23)C(=O)N[C@@H](C(=O)N[C@H](Cc2c[nH]c3ccccc23)C(=O)N[C@@H](C(N)=O)C(C)C)[C@H](C)O)NC1=O [(89)] (H-[dR][dK][dC]GV[dC][dW][dT][dW][dV]-NH2; disulfide 3-6) | 22.3 | ring closure, yield of all isomers ([1]; from CC(C)[C@H](NC(=O)CNC(=O)[C@@H](CS)NC(=O)[C@@H](CCCCN)NC(=O)[C@H](N)CCCNC(=N)N)C(=O)N[C@H](CS)C(=O)N[C@H](Cc1c[nH]c2ccccc12)C(=O)N[C@@H](C(=O)N[C@H](Cc1c[nH]c2ccccc12)C(=O)N[C@@H](C(N)=O)C(C)C)[C@H](C)O, DMSO, 0.387 mM, 25.0 °C, 72.0 h): 4% |
| CC(C)[C@H](NC(=O)[C@H](Cc1c[nH]c2ccccc12)NC(=O)[C@@H](NC(=O)[C@H](Cc1c[nH]c2ccccc12)NC(=O)[C@@H]1CSSC[C@H](NC(=O)[C@H](CCCCN)NC(=O)[C@@H](N)CCCNC(=N)N)C(=O)NCC(=O)NCC(=O)N1)[C@@H](C)O)C(N)=O [(9)] (H-RKCGGCWTWV-NH2; disulfide 3-6) | 3 | ring closure, yield of all isomers ([1]; from CC(C)[C@H](NC(=O)[C@H](Cc1c[nH]c2ccccc12)NC(=O)[C@@H](NC(=O)[C@H](Cc1c[nH]c2ccccc12)NC(=O)[C@H](CS)NC(=O)CNC(=O)CNC(=O)[C@H](CS)NC(=O)[C@H](CCCCN)NC(=O)[C@@H](N)CCCNC(=N)N)[C@@H](C)O)C(N)=O, DMSO, 0.456 mM, 16.0 h): 4.4% |
| CC[C@H](C)[C@@H]1NC(=O)CNC(=O)[C@H](NC(=O)[C@@H](CCCCN)NC(=O)[C@H](N)CCCNC(=N)N)CSSC[C@H](C(=O)N[C@H](Cc2c[nH]c3ccccc23)C(=O)N[C@@H](C(=O)N[C@H](Cc2c[nH]c3ccccc23)C(=O)N[C@@H](C(N)=O)C(C)C)[C@H](C)O)NC1=O [(68)] (H-[dR][dK][dC]GI[dC][dW][dT][dW][dV]-NH2; disulfide 3-6) | 3.7 | ring closure, yield of all isomers ([1]; from CC[C@H](C)[C@H](NC(=O)CNC(=O)[C@@H](CS)NC(=O)[C@@H](CCCCN)NC(=O)[C@H](N)CCCNC(=N)N)C(=O)N[C@H](CS)C(=O)N[C@H](Cc1c[nH]c2ccccc12)C(=O)N[C@@H](C(=O)N[C@H](Cc1c[nH]c2ccccc12)C(=O)N[C@@H](C(N)=O)C(C)C)[C@H](C)O, Cu wire, NH4OH, 3.2 mM, 20.0 h): 2.8% |
| CC(C)[C@@H](NC(=O)[C@@H](Cc1c[nH]c2ccccc12)NC(=O)[C@H](NC(=O)[C@@H](Cc1c[nH]c2ccccc12)NC(=O)[C@H]1CSSC[C@@H](NC(=O)[C@@H](CCCCN)NC(=O)[C@H](N)CCCNC(=N)N)C(=O)N2CCC[C@@H]2C(=O)N[C@@H](Cc2ccccc2)C(=O)N1)[C@H](C)O)C(N)=O [(57)] (H-[dR][dK][dC][dP]F[dC][dW][dT][dW][dV]-NH2; disulfide 3-6) | 70.4 | ring closure, yield of all isomers ([1]; from CC(C)[C@@H](NC(=O)[C@@H](Cc1c[nH]c2ccccc12)NC(=O)[C@H](NC(=O)[C@@H](Cc1c[nH]c2ccccc12)NC(=O)[C@@H](CS)NC(=O)[C@H](Cc1ccccc1)NC(=O)[C@H]1CCCN1C(=O)[C@@H](CS)NC(=O)[C@@H](CCCCN)NC(=O)[C@H](N)CCCNC(=N)N)[C@H](C)O)C(N)=O, air, Cu wire, NH4OH, 0.42 mM, 25.0 °C, 6.0 h): 8.7% |

Further lines, with some results ahead:

| IC50 (P-selectin) [µM] | SMILES | also measured |
| --- | --- | --- |
| 263 | CC(C)[C@@H](NC(=O)[C@@H](Cc1c[nH]c2ccccc12)NC(=O)[C@H](NC(=O)[C@@H](Cc1c[nH]c2ccccc12)NC(=O)[C@H]1CSSC[C@@H](NC(=O)[C@@H](CCCCN)NC(=O)[C@H](N)CCCNC(=N)N)C(=O)N[C@H](CCCNC(=N)N)C(=O)N[C@@H](Cc2ccccc2)C(=O)N1)[C@H](C)O)C(N)=O [(45)] (H-[dR][dK][dC][dR]F[dC][dW][dT][dW][dV]-NH2; disulfide 3-6) | ring closure, yield of all isomers ([1]; from CC(C)[C@@H](NC(=O)[C@@H](Cc1c[nH]c2ccccc12)NC(=O)[C@H](NC(=O)[C@@H](Cc1c[nH]c2ccccc12)NC(=O)[C@@H](CS)NC(=O)[C@H](Cc1ccccc1)NC(=O)[C@@H](CCCNC(=N)N)NC(=O)[C@@H](CS)NC(=O)[C@@H](CCCCN)NC(=O)[C@H](N)CCCNC(=N)N)[C@H](C)O)C(N)=O, DMSO, 0.357 mM, 25.0 °C, 48.0 h): 15.5% |
| 7 | CC(C)[C@@H](NC(=O)[C@@H](Cc1c[nH]c2ccccc12)NC(=O)[C@H](NC(=O)[C@@H](Cc1c[nH]c2ccccc12)NC(=O)[C@H]1CSSC[C@@H](NC(=O)[C@@H](CCCCN)NC(=O)[C@H](N)CCCNC(=N)N)C(=O)N[C@H](Cc2c[nH]cn2)C(=O)N[C@@H](Cc2ccccc2)C(=O)N1)[C@H](C)O)C(N)=O [(47)] (H-[dR][dK][dC][dH]F[dC][dW][dT][dW][dV]-NH2; disulfide 3-6) | ring closure, yield of all isomers ([1]; from CC(C)[C@@H](NC(=O)[C@@H](Cc1c[nH]c2ccccc12)NC(=O)[C@H](NC(=O)[C@@H](Cc1c[nH]c2ccccc12)NC(=O)[C@@H](CS)NC(=O)[C@H](Cc1ccccc1)NC(=O)[C@@H](Cc1c[nH]cn1)NC(=O)[C@@H](CS)NC(=O)[C@@H](CCCCN)NC(=O)[C@H](N)CCCNC(=N)N)[C@H](C)O)C(N)=O, DMSO, 0.698 mM, 24.0 h): 3.5% |
| 30.6 | CC(C)[C@@H](NC(=O)[C@@H](Cc1c[nH]c2ccccc12)NC(=O)[C@H](NC(=O)[C@@H](Cc1c[nH]c2ccccc12)NC(=O)[C@H]1CSSC[C@@H](NC(=O)[C@@H](CCCCN)NC(=O)[C@H](N)CCCNC(=N)N)C(=O)N[C@@H](CCCNC(=N)N)C(=O)N[C@@H](Cc2ccccc2)C(=O)N1)[C@H](C)O)C(N)=O [(39)] (H-[dR][dK][dC]RF[dC][dW][dT][dW][dV]-NH2; disulfide 3-6) | ring closure, yield of all isomers ([1]; from CC(C)[C@@H](NC(=O)[C@@H](Cc1c[nH]c2ccccc12)NC(=O)[C@H](NC(=O)[C@@H](Cc1c[nH]c2ccccc12)NC(=O)[C@@H](CS)NC(=O)[C@H](Cc1ccccc1)NC(=O)[C@H](CCCNC(=N)N)NC(=O)[C@@H](CS)NC(=O)[C@@H](CCCCN)NC(=O)[C@H](N)CCCNC(=N)N)[C@H](C)O)C(N)=O, DMSO, 0.315 mM, 25.0 °C, 96.0 h): 12.2% |
| 85.9 | CC(C)[C@@H](NC(=O)[C@@H](Cc1c[nH]c2ccccc12)NC(=O)[C@H](NC(=O)[C@@H](Cc1c[nH]c2ccccc12)NC(=O)[C@H]1CSSC[C@@H](NC(=O)[C@@H](CCCCN)NC(=O)[C@H](N)CCCNC(=N)N)C(=O)N[C@@H](CCCCN)C(=O)N[C@@H](Cc2ccccc2)C(=O)N1)[C@H](C)O)C(N)=O [(70)] (H-[dR][dK][dC]KF[dC][dW][dT][dW][dV]-NH2; disulfide 3-6) | ring closure, yield of all isomers ([1]; from CC(C)[C@@H](NC(=O)[C@@H](Cc1c[nH]c2ccccc12)NC(=O)[C@H](NC(=O)[C@@H](Cc1c[nH]c2ccccc12)NC(=O)[C@@H](CS)NC(=O)[C@H](Cc1ccccc1)NC(=O)[C@H](CCCCN)NC(=O)[C@@H](CS)NC(=O)[C@@H](CCCCN)NC(=O)[C@H](N)CCCNC(=N)N)[C@H](C)O)C(N)=O, DMSO, 0.708 mM, 48.0 h): 8.8% |
